Source: patent US20150004620A1, “METHOD OR DEVICE FOR IDENTIFYING INHIBITOR OF EPITHELIAL MESENCHYMAL TRANSITION” (Agency for Science, Technology and Research, priority 2011, published 2015)
Read-outs that look alike come from different tables or passages of the source.

How the values were obtained:
Type in all cases: cell-based
[1] = test system: IGF-1-induced EMT in NBT-II cells; assay: EMT spot migration assay, IGF-1-induced; settings: IGF-1-induced EMT (150 ng/ml IGF-1), CDR dose response from 6.67 μM, read-out: Cell Dispersion IC 50, IGF-1
Procedure: (§1) NBT-II cells were stably transfected with mcherry-fluorescent H2B and maintained in DMEM supplemented with 10% fetal bovine serum (FBS, Thermo Scientific), 1 μg/ml puromycin (Sigma) and 100 units/ml penicillin-streptomycin (1× pen-strep, Invitrogen). Cells were grown to 80% confluency in tissue culture flasks prior to plating. Cells were trypsinized and concentrated to a density of 5×10^6 cell/ml in CO2-independent medium (Invitrogen) supplemented with 10% FBS. The cell suspension was then evenly dispersed into the wells of two columns of a 96-well V-bottom plate. Using a robotic liquid-handling station (Bravo, Agilent Technologies), 0.5 μl of cell suspension was transferred from the two columns of the cell suspension-loaded plate and deposited into the center of the wells of two columns of a 96-well clear bottom, black assay plate (Corning). This process was repeated six times so that all 96 wells of the assay plate were deposited with a cell suspension spot. The plate was then sealed to minimize evaporation of the cell suspension spots and transferred to a 37° C., 5% CO2 incubator to allow for cells to attach to the culture surface. After 1 hour, the plate was gently washed with medium once to remove unattached cells, refreshed with 100 μl of assay medium (DMEM supplemented with 10% FBS and 1× pen-strep), and then further incubated to allow for cell-cell contacts to establish in the cell colonies.
(§2) Four tiled, non-overlapping images were acquired around the center of each well, and were then stitched together during image analysis to generate a montage covering an area of 3.2 mm×3.2 mm. These images (T1) represent the initial state of the cell colonies before EMT induction.
(§3) After the T1 images were acquired, 1 μl of test compounds were transferred from compound stock plates and added to the assay plates. Appropriate negative controls (1 μl DMSO) and positive controls (1 μl 1.0 mM compound in DMSO) were also added into columns 1 and 12 of each assay plate, respectively. […] The cultures were then further incubated overnight.
(§4) The next day, 50 μl of growth factor-containing medium was added to each well of the assay-plates. For each of the growth factor-induced EMT spot migration assays, the final growth factor concentrations in each well is optimized to be 20 ng/ml EGF (Sigma), 4 ng/ml HGF (Calbiochem) or 150 ng/ml IGF-1 (R&D Systems), respectively. The cultures were then incubated for another 24 hours, to allow for EMT and sufficient cell motility/dispersion to occur in the cell colonies.
(§5) Finally, the cell colonies were imaged again using the microplate imager, as described above. These images (T2) represent the final state of the cell colonies after compound treatment and EMT induction. The acquired T1 and T2 image sets for each assay plate were then sent for image analysis.
(§6) The acquisition of each well was obtained by four adjacent field images with no interstice in between. Each field image was loaded and nuclei were initially segmented independently of other fields to prevent artifact at the field border. Nuclei segmentation was achieved by combining a wavelet transform which is robust to noise and unhomogeneous background, and a watershed algorithm based on intensities to split nuclei clusters. Mask of nuclei segmentation of the different fields were then stitched together in order to obtain a large segmentation of the whole well. Cell bodies were estimated by applying a morphological dilation on the nucleus segmentation using a disk of 30 pixels (48 μm) in diameter. In cells that are contiguous, such as in a cell colony, nuclei segmentation dilation will result in the formation of continuous region areas with surrounding cells which can then be identified as colonies.
(§7) Total cell number and spreading coefficient values for each well were then exported into an Excel sheet.

[2] = test system: EGF-induced EMT in NBT-II cells; assay: EMT spot migration assay, EGF-induced; settings: for IC50: read-out: Cell Dispersion IC 50, EGF; for Cell dispersion pattern at T2 (FIG. 1D): 6.67 μM compound and EGF
Procedure: as §1, §2, §3, §4, §5, §6, §7

[3] = test system: HGF-induced EMT in NBT-II cells; assay: EMT spot migration assay, HGF-induced; settings: for IC50: HGF-induced EMT (4 ng/ml HGF), CDR dose response from 6.67 μM, read-out: Cell Dispersion IC 50, HGF
Procedure: as §1, §2, §3, §4, §5, §6, §7

E-cadherin = assay: Western blot of EMT marker E-cadherin in growth factor-treated NBT-II cells; settings: NBT-II cells, 0.5, 2 and 8 μM compound overnight, then EGF, HGF or IGF-1 for 24 h (FIG. 7)
Procedure: NBT-II cells were treated with compounds at 0.5, 2 and 8 μM overnight and incubated with a growth factor for 24 h. Cells were lysed with protease/phosphatase inhibitor-containing RIPA buffer. Proteins are separated in 8% polyacrylamide gels and transferred to PDVF membranes. Membranes were blocked in 5% BSA and incubated at 4° C. overnight with MMP-13 (Millipore), E-cadherin (BD) and α-tubulin (Sigma) primary antibodies. Membranes were then developed with HRP-conjugated secondary antibody (Amersham) and ECL substrate (Millipore).
The possibilities that ALK5, MEK, PI3K and SRC targeting compounds could modulate the expression of EMT markers, such as E-cadherin and matrix metalloproteinase-13 (MMP-13) under EMT-activated conditions were also investigated (FIG. 7). With the exception of P13K inhibitor GDC-0941, the compounds in general abrogated MMP-13 expression in growth factor-treated samples, PI3K inhibition has been previously shown to augment MMP-13 expression. […] These findings are consistent with previous reports showing that ALK5, MEK and SRC play a role in cell motility and tumor progression, while PI3K predominately regulates cell proliferation.

MMP-13 = assay: Western blot of EMT marker MMP-13 in growth factor-treated NBT-II cells; settings: NBT-II cells, 0.5, 2 and 8 μM compound overnight, then growth factor for 24 h (FIG. 7)
[4] = EGF-induced EMT (20 ng/ml EGF), NBT-II cells, CDR dose response from 6.67 μM

SMILES | IC50 [1] [nM] | IC50 [2, 4] [nM] | IC50 [3] [nM] | E-cadherin expression (E-cadherin) | Inhibition of HGF-induced EMT (growth factor specificity) ([3]; spot migration assay) | MMP-13 expression (MMP-13) | Cell dispersion pattern at T2 (FIG. 1D) ([2]; NBT-II cells) | IC50 [2] [nM]
COc1cc2ncnc(Nc3ccc(O)c(Br)c3)c2cc1OC [WHI-P154] | > 5000 | 800 | > 5000 | – | – | – | – | –
O=C(NOCC1CC1)c1ccc(F)c(F)c1Nc1ccc(I)cc1Cl [CI-1040] | 1200 | 1000 | 820 | – | – | – | – | –
Cn1cc(-c2ccc3nnc(C(F)(F)c4ccc5ncccc5c4)n3n2)cn1 [JNJ-38877605] | > 5000 | > 5000 | 94 | – | – | – | – | –
OCCn1cc(-c2cnc3nnn(Cc4ccc5ncccc5c4)c3n2)cn1 [PF-04217903] | > 5000 | > 5000 | 55 | – | specifically inhibited HGF-induced EMT | – | – | –
CNc1cc2c(Nc3cccc(Br)c3)ncnc2cn1 [PD158780] | > 5000 | 1200 | > 5000 | – | – | – | – | –
COc1cc2ncnc(Nc3cccc(Cl)c3)c2cc1OC [AG1478] | > 5000 | 330 | > 5000 | – | – | – | – | –
c1ccc(-c2[nH]ncc2-c2ccnc3ccccc23)nc1 [LY-364947] | 240 | 140 | 180 | – | – | – | – | –
COc1cc2ncnc(Nc3cccc(Br)c3)c2cc1OC [PD153035] | > 5000 | 550 | > 5000 | – | – | – | pattern of inhibition | –
CS(=O)(=O)CCNCc1ccc(-c2ccc3ncnc(Nc4ccc(OCc5cccc(F)c5)c(Cl)c4)c3c2)o1 [Lapatinib] | > 5000 | 620 | > 5000 | – | – | – | – | –
Cc1ccc(-c2nn(C(C)(C)C)c3ncnc(N)c23)cc1 [PP1] | 1200 | 2300 | 2000 | – | – | – | pattern of inhibition | –
C#Cc1cccc(Nc2ncnc3cc(OCCOC)c(OCCOC)cc23)c1 [Erlotinib] | > 5000 | – | > 5000 | – | – | – | – | 950
O=C(NOC[C@H](O)CO)c1ccc(F)c(F)c1Nc1ccc(I)cc1F [PD0325901] | 8.9 | 31 | 20 | augment E-cadherin expression | – | – | – | –
NC(=O)c1ccc(-c2nc(-c3ccc4c(c3)OCCO4)c(-c3ccccn3)[nH]2)cc1 [D4476] | 1900 | 1100 | 1400 | – | – | – | – | –

Continued, in another order:

IC50 [1] [nM] | IC50 [2, 4] [nM] | IC50 [3] [nM] | SMILES | E-cadherin expression (E-cadherin) | Inhibition of HGF-induced EMT (growth factor specificity) ([3]; spot migration assay) | MMP-13 expression (MMP-13) | Cell dispersion pattern at T2 (FIG. 1D) ([2]; NBT-II cells) | IC50 [2] [nM]
120 | 69 | 130 | Cc1cccc(-c2nn(C(=S)Nc3ccccc3)cc2-c2ccnc3ccccc23)n1 [A83-01] | restored the E-cadherin protein levels | – | – | – | –
400 | 680 | 380 | Oc1cccc(-c2nc(N3CCOCC3)c3oc4ncccc4c3n2)c1 [PI-103] | – | – | – | – | –
170 | > 5000 | 2300 | Cc1cc(N2CCOCC2)cc2[nH]c(-c3c(NC[C@@H](O)c4cccc(Cl)c4)cc[nH]c3=O)nc12 [BMS-536924] | – | – | – | – | –
500 | 740 | 380 | CS(=O)(=O)N1CCN(Cc2cc3nc(-c4cccc5[nH]ncc45)nc(N4CCOCC4)c3s2)CC1 [GDC-0941] | restored the E-cadherin protein levels | – | exception | – | –
880 | 840 | 790 | Cn1cnc2c(F)c(Nc3ccc(Br)cc3Cl)c(C(=O)NOCCO)cc21 [AZD6244] | – | – | – | – | –
620 | 950 | 400 | COc1ccc2c(c1OC)N=C(NC(=O)c1cccnc1)N1CCN=C21 [PIK-90] | – | – | – | – | –
660 | 850 | 410 | FC(F)c1nc2ccccc2n1-c1nc(N2CCOCC2)nc(N2CCOCC2)n1 [ZSTK474] | – | – | – | – | –
150 | 85 | 110 | Fc1ccc(Cl)cc1-c1nc(Nc2ccncc2)c2nccnc2n1 [SD-208] | – | – | – | – | –
820 | 1600 | 940 | NC(=O)c1ccc(-c2nc(-c3ccc4c(c3)OCO4)c(-c3ccccn3)[nH]2)cc1 [SB-431542] | – | – | – | – | –
